Earlier results in patent US20220251295A1 (DYNAMIC BIOLOGICS INC., priority 2019, published 2022).
Values belong to the compound of their own block, whether it stands above or below them.

Columns and labels:
[1] = Phase III clinical trials
[2] = levodopa alone
[3] = administered with levodopa

Compound: CCOC(=O)[C@@H](N)Cc1ccc(O)c(O)c1 [Etilevodopa]
- efficacy compared with Levodopa [1]: less efficacious than Levodopa

- Plasma half-life of levodopa [2]: ~50 min
Compound: N[C@@H](Cc1ccc(O)c(O)c1)C(=O)O [levodopa, (S)-2-amino-3-(3,4-dihydroxyphenyl)propanoic acid]

Compound: C[C@@](Cc1ccc(O)c(O)c1)(NN)C(=O)O [carbidopa]
- reduction of the amount of levodopa required to produce a given response [3]: 75%
